In ChEMBL document CHEMBL1132836, “2-Aryl tryptamines: selective high-affinity antagonists for the h5-HT2A receptor” (Bioorg Med Chem Lett, 2000):

Columns and labels:
[1] = molecular target: D(2) dopamine receptor (Homo sapiens, UniProt P14416); experiment: biochemical
Description: Displacement of [3H]spiperone from CHO cells expressing human Dopamine receptor D2.

[2] = molecular target: 5-hydroxytryptamine receptor 2A (Homo sapiens, UniProt P28223); experiment: Displacement of [3H]ketanserin from CHO cells expressing human 5-hydroxytryptamine 2A receptor.; assay type: cell-based
[3] = molecular target: T1, 5-hydroxytryptamine receptor 2C (Homo sapiens, UniProt P28335); experiment: Displacement of [H]-mesulergine from CHO cells expressing human 5-hydroxytryptamine 2C receptor.; assay type: cell-based
T1 sequence (P28335 whole entry): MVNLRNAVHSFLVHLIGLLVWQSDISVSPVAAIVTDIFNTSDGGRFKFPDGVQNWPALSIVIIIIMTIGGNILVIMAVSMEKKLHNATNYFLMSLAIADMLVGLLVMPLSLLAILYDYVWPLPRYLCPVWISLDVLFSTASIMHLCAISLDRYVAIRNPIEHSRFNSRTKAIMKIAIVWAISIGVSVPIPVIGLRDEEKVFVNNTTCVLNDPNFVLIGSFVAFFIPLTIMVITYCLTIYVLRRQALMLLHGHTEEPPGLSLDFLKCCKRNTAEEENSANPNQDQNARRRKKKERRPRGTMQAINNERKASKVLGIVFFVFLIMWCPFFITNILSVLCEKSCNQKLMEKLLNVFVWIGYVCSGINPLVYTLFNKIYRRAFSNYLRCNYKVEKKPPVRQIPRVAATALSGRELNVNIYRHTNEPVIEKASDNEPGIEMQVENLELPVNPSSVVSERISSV

Row | SMILES | Ki [1] [nM] | Ki [2] [nM] | Ki [3] [nM]
1 | c1ccc(-c2[nH]c3ccccc3c2CCN2CCCCC2)cc1 | 896 | 2.6 | 268
2 | C[C@@H]1CCCCN1CCc1c(-c2ccccc2)[nH]c2ccccc12 | 21 | 0.18 | 36
3 | CCN(C)CCc1c(-c2ccco2)[nH]c2ccccc12 | > 1000 | > 1000 | > 1000
4 | c1ccc(-c2[nH]c3ccccc3c2CCN2CCC2)cc1 | > 1000 | 44 | > 1000
5 | c1ccc(-c2[nH]c3ccccc3c2CCN2CCCC2)cc1 | > 1000 | 9 | 260
6 | C[C@H]1CCCCN1CCc1c(-c2ccccc2)[nH]c2ccccc12 | 290 | 4 | 230
7 | CCN(CC)CCc1c(-c2ccccc2)[nH]c2ccccc12 | > 1000 | 2.8 | 160
8 | CCN(C)CCc1c(-c2cccc([N+](=O)[O-])c2)[nH]c2ccccc12 | 39 | 0.14 | 36
9 | CN(C)CCc1c(-c2ccccc2)[nH]c2ccccc12 | > 1000 | 4.4 | 180
